From patent US20140303322A1, “ANTIMICROBIAL AND BACTERIOSTATIC-MODIFIED POLYMERS FOR CELLULOSE FIBRES” (priority 2012, published 2014)
Marks after values point to notes of the source that are not given here.

Experiments:
[1] = system: E. coli ATCC 11229; assay: Shaking flask method, antibiotics/CPβCD complexes on cellulose fibres; type: cell-based, Escherichia coli; conditions: CPβCD complex
[2] = Water solubility of triclosan and butylparaben (UV spectrophotometer); type: physicochemical; conditions: FIGS. 13 and 14; complex with CPβCD
Source text: The triclosan/CPβCD or butylparaben/CPβCD complex can be prepared by adopting the procedures described by Arias et al. (1997)^7 and Mura et al. (2002)^8. […] The solubility of triclosan or butylparaben can be determined by a UV spectrophotometer at wavelength of 282 nm and 256 nm, respectively.

[3] = concentration 0.03 % wt, contacting time 1 hour
[4] = concentration 0.06 % wt, contacting time 1 hour
[5] = concentration 0.125 % wt, contacting time 1 hour
[6] = concentration 0.25 % wt, contacting time 1 hour
[7] = concentration 0.5 % wt, contacting time 1 hour
[8] = concentration 1 % wt, contacting time 1 hour
[9] = contacting time 0.5 min, antibiotic 0.5% wt based on cellulose fibres
[10] = contacting time 1 min, antibiotic 0.5% wt based on cellulose fibres
[11] = contacting time 3 min, antibiotic 0.5% wt based on cellulose fibres
[12] = contacting time 10 min, antibiotic 0.5% wt based on cellulose fibres
[13] = contacting time 30 min, antibiotic 0.5% wt based on cellulose fibres
[14] = contacting time 60 min, antibiotic 0.5% wt based on cellulose fibres

CCCCOC(=O)c1ccc(O)cc1 [Butylparaben, butylparaben]
Growth inhibition (%) [1, 3]: 4.54% | Growth inhibition (%) [1, 4]: 9.09% | Growth inhibition (%) [1, 5]: 54.6% | Growth inhibition (%) [1, 6]: 81.8% | Growth inhibition (%) [1, 7]: 99.9% | Growth inhibition (%) [1, 8]: 100% | Growth inhibition (%) [1, 9]: 50.0% | Growth inhibition (%) [1, 10]: 61.9% | Growth inhibition (%) [1, 11]: 95.8% | Growth inhibition (%) [1, 12]: 100**** % | Growth inhibition (%) [1, 13]: 100% | Growth inhibition (%) [1, 14]: 100% | water solubility as a function of CPβCD content [2]: linear increased with the CPβCD content

Oc1cc(Cl)ccc1Oc1ccc(Cl)cc1Cl [Triclosan]
Growth inhibition (%) [1, 3]: 23.2% | Growth inhibition (%) [1, 4]: 50.2% | Growth inhibition (%) [1, 5]: 68.1% | Growth inhibition (%) [1, 6]: 87.1% | Growth inhibition (%) [1, 7]: 99.7% | Growth inhibition (%) [1, 8]: 100% | Growth inhibition (%) [1, 9]: 24.6% | Growth inhibition (%) [1, 10]: 37.7% | Growth inhibition (%) [1, 11]: 61.0% | Growth inhibition (%) [1, 12]: 95.8% | Growth inhibition (%) [1, 13]: 99.6% | Growth inhibition (%) [1, 14]: 100% | water solubility as a function of CPβCD content [2]: linear increased with the CPβCD content
